Legend:
NCI-60 cell line panel = experiment: NCI-60 single-dose assay, whole panel; assay type: cell-based, human; conditions: summary over the panel
Outline: (§1)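 Read-out is cytotoxic activity from a single-concentration test; the panel spans nine human cancer types, including leukemia, lung, colon and renal.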

[1] = test system: IAV strain A/PR/8/34 (H1N1); conditions: preliminary screening
[2] = test system: EKVX (non-small cell lung cancer cell line); experiment: NCI-60 single-dose assay; assay type: cell-based, human; conditions: Homo sapiens, read-out: growth inhibition (GI%) and cytotoxicity (negative values)
Outline: as §1

[3] = test system: RXF 393 (renal cancer cell line); experiment: NCI-60 single-dose assay; assay type: cell-based, human; conditions: Homo sapiens, RXF 393, read-out: growth inhibition (GI%) and cytotoxicity (negative values)
Outline: as §1

[4] = test system: MALME-3M (melanoma cell line); experiment: NCI-60 single-dose assay; assay type: cell-based, human
Outline: as §1

[5] = test system: NCI-H460 (non-small cell lung cancer cell line); experiment: NCI-60 single-dose assay; assay type: cell-based, human; conditions: Homo sapiens, NCI-H460, read-out: growth inhibition (GI%) and cytotoxicity (negative values)
Outline: as §1

[6] = test system: BT-549 (breast cancer cell line); experiment: NCI-60 single-dose assay; assay type: cell-based, human; conditions: Homo sapiens, BT-549, read-out: growth inhibition (GI%) and cytotoxicity (negative values)
Outline: as §1

[7] = test system: SN12C (renal cancer cell line); experiment: NCI-60 single-dose assay; assay type: cell-based, human; conditions: Homo sapiens, read-out: growth inhibition (GI%) and cytotoxicity (negative values)
Outline: as §1

[8] = test system: HCT-116 (colon cancer cell line); experiment: NCI-60 single-dose assay; assay type: cell-based, human; conditions: Homo sapiens, HCT-116, read-out: growth inhibition (GI%) and cytotoxicity (negative values)
Outline: as §1

[9] = test system: CCRF-CEM (leukemia cell line); experiment: NCI-60 single-dose assay; assay type: cell-based, human; conditions: Homo sapiens, read-out: growth inhibition (GI%) and cytotoxicity (negative values)
Outline: as §1

[10] = test system: MDA-MB-231/ATCC (breast cancer cell line); experiment: NCI-60 single-dose assay; assay type: cell-based, human; conditions: Homo sapiens, MDA-MB-231, read-out: growth inhibition (GI%) and cytotoxicity (negative values)
Outline: as §1

[11] = test system: KM12 (colon cancer cell line); experiment: NCI-60 single-dose assay; assay type: cell-based, human; conditions: Homo sapiens, KM12, read-out: growth inhibition (GI%) and cytotoxicity (negative values)
Outline: as §1

[12] = test system: MDA-MB-435 (melanoma cell line); experiment: NCI-60 single-dose assay; assay type: cell-based, human
Outline: as §1

[13] = test system: NCI-H23 (non-small cell lung cancer cell line); experiment: NCI-60 single-dose assay; assay type: cell-based, human; conditions: Homo sapiens, NCI-H23, read-out: growth inhibition (GI%) and cytotoxicity (negative values)
Outline: as §1

[14] = test system: SK-MEL-28 (melanoma cell line); experiment: NCI-60 single-dose assay; assay type: cell-based, human
Outline: as §1

M14 (melanoma cell line) = experiment: NCI-60 single-dose assay; assay type: cell-based, human; conditions: human
Outline: as §1

[15] = test system: RPMI-8226 (leukemia cell line); experiment: NCI-60 single-dose assay; assay type: cell-based, human
Outline: as §1

[16] = test system: UACC-257 (melanoma cell line); experiment: NCI-60 single-dose assay; assay type: cell-based, human
Outline: as §1

[17] = test system: UO-31 (renal cancer cell line); experiment: NCI-60 single-dose assay; assay type: cell-based, human; conditions: Homo sapiens, UO-31, read-out: growth inhibition (GI%) and cytotoxicity (negative values)
Outline: as §1

[18] = test system: NCI-H522 (non-small cell lung cancer cell line); experiment: NCI-60 single-dose assay; assay type: cell-based, human; conditions: Homo sapiens, NCI-H522, read-out: growth inhibition (GI%) and cytotoxicity (negative values)
Outline: as §1

[19] = test system: HL-60(TB) (leukemia cell line); experiment: NCI-60 single-dose assay; assay type: cell-based, human; conditions: human
[20] = test system: CAKI-1 (renal cancer cell line); experiment: NCI-60 single-dose assay; assay type: cell-based, human; conditions: Homo sapiens, CAKI-1, read-out: growth inhibition (GI%) and cytotoxicity (negative values)
Outline: as §1

[21] = test system: SK-MEL-2 (melanoma cell line); experiment: NCI-60 single-dose assay; assay type: cell-based, human
Outline: as §1

[22] = test system: HT29 (colon cancer cell line); experiment: NCI-60 single-dose assay; assay type: cell-based, human; conditions: Homo sapiens, HT-29, read-out: growth inhibition (GI%) and cytotoxicity (negative values)
Outline: as §1

[23] = test system: MOLT-4 (leukemia cell line); experiment: NCI-60 single-dose assay; assay type: cell-based, human; conditions: Homo sapiens, MOLT-4, read-out: growth inhibition (GI%) and cytotoxicity (negative values)
Outline: as §1

[24] = test system: LOX IMVI (melanoma cell line); experiment: NCI-60 single-dose assay; assay type: cell-based, human
Outline: as §1

[25] = test system: HCT-15 (colon cancer cell line); experiment: NCI-60 single-dose assay; assay type: cell-based, human; conditions: Homo sapiens, HCT-15, read-out: growth inhibition (GI%) and cytotoxicity (negative values)
Outline: as §1

[26] = test system: SW-620 (colon cancer cell line); experiment: NCI-60 single-dose assay; assay type: cell-based, human
Outline: as §1

[27] = test system: NCI-H226 (non-small cell lung cancer cell line); experiment: NCI-60 single-dose assay; assay type: cell-based, human; conditions: Homo sapiens, NCI-H226, read-out: growth inhibition (GI%) and cytotoxicity (negative values)
Outline: as §1

SR (leukemia cell line) = experiment: NCI-60 single-dose assay; assay type: cell-based, human
Outline: as §1

[28] = test system: MDA-MB-468 (breast cancer cell line); experiment: NCI-60 single-dose assay; assay type: cell-based, human; conditions: human
Outline: as §1

[29] = test system: 786-0 (renal cancer cell line); experiment: NCI-60 single-dose assay; assay type: cell-based, human; conditions: Homo sapiens, 786-0, read-out: growth inhibition (GI%) and cytotoxicity (negative values)
Outline: as §1

[30] = test system: UACC-62 (melanoma cell line); experiment: NCI-60 single-dose assay; assay type: cell-based, human
Outline: as §1

[31] = test system: T-47D (breast cancer cell line); experiment: NCI-60 single-dose assay; assay type: cell-based, human; conditions: Homo sapiens, T47D, read-out: growth inhibition (GI%) and cytotoxicity (negative values)
Outline: as §1

[32] = test system: COLO 205 (colon cancer cell line); experiment: NCI-60 single-dose assay; assay type: cell-based, human; conditions: human
Outline: as §1

[33] = test system: MCF-7 (breast cancer cell line); experiment: NCI-60 single-dose assay; assay type: cell-based, human; conditions: Homo sapiens, MCF7, read-out: growth inhibition (GI%) and cytotoxicity (negative values), MCF-7, 10^−5 M
Outline: as §1

[34] = test system: HCC-2998 (colon cancer cell line); experiment: NCI-60 single-dose assay; assay type: cell-based, human; conditions: human
Outline: as §1

Q: Which results are given for `CCOc1ccccc1N1CCN(CCNC(=O)c2c(Cl)[nH]c3c2CCCc2ccccc2-3)CC1` [Compound 17]?
A: growth inhibition (GI%) reached against cancer cell lines of the NCI-60 panel (NCI-60 cell line panel): > 90%; IAV/MDCK SI [1]: 0.23; inhibition at 10 µM [2]: 87.5%; inhibition at 10 µM [3]: 62.1%; inhibition at 10 µM ([4]; Homo sapiens, Malme-3M, read-out: growth inhibition (GI%) and cytotoxicity (negative values)): 90.3%; inhibition at 10 µM [5]: 70%; inhibition at 10 µM [6]: 80.7%; inhibition at 10 µM [7]: 60.7%; inhibition at 10 µM [8]: 88.9%; inhibition at 10 µM [9]: 61.6%; inhibition at 10 µM [10]: < 60%; inhibition at 10 µM [11]: < 60%; inhibition at 10 µM ([12]; Homo sapiens, MDA-MB-435, read-out: growth inhibition (GI%) and cytotoxicity (negative values)): 69.3%; inhibition at 10 µM [13]: < 60%; inhibition at 10 µM ([14]; Homo sapiens, SK-MEL-28, read-out: growth inhibition (GI%) and cytotoxicity (negative values)): 71.5%; growth inhibition (GI%) and cytotoxicity (negative values) (M14 (melanoma cell line)): −7.74%; inhibition at 10 µM ([15]; Homo sapiens, RPMI-8226, read-out: growth inhibition (GI%) and cytotoxicity (negative values)): < 60%; inhibition at 10 µM ([16]; Homo sapiens, UACC-257, read-out: growth inhibition (GI%) and cytotoxicity (negative values)): 72%; inhibition at 10 µM [17]: 69.3%; inhibition at 10 µM [18]: 65.7%; growth inhibition (GI%) and cytotoxicity (negative values) [19]: −8.21%; inhibition at 10 µM [20]: 71.6%; inhibition at 10 µM ([21]; Homo sapiens, SK-MEL-2, read-out: growth inhibition (GI%) and cytotoxicity (negative values)): < 60%; inhibition at 10 µM [22]: 81.5%; inhibition at 10 µM [23]: 95.5%; inhibition at 10 µM ([24]; Homo sapiens, LOX IMVI, read-out: growth inhibition (GI%) and cytotoxicity (negative values)): 74.3%; inhibition at 10 µM [25]: 81%; inhibition at 10 µM ([26]; Homo sapiens, SW-620, read-out: growth inhibition (GI%) and cytotoxicity (negative values)): < 60%; inhibition at 10 µM [27]: 60.4%; growth inhibition (GI%) and cytotoxicity (negative values) (SR (leukemia cell line); human): −5.19%; growth inhibition (GI%) and cytotoxicity (negative values) [28]: −3.78%; inhibition at 10 µM [29]: < 60%; inhibition at 10 µM ([30]; Homo sapiens, UACC-62, read-out: growth inhibition (GI%) and cytotoxicity (negative values)): < 60%; inhibition at 10 µM [31]: 77.6%; growth inhibition (GI%) and cytotoxicity (negative values) [32]: −47.24%; inhibition at 10 µM [33]: 82.2%; growth inhibition (GI%) and cytotoxicity (negative values) [34]: −35.63%

Q: `O=C(NCCCN1CCN(Cc2ccccc2)CC1)c1c(Cl)[nH]c2c1CCCc1ccccc1-2` [Compound 20, N-(3-(4-Benzylpiperazin-1-yl)propyl)-2-chloro-1,4,5,6-tetrahydrobenzo[6,7]cyclohepta[1,2-b]pyrrole-3-carboxamide] was tested. Which “growth inhibition (GI%) reached against cancer cell lines of the NCI-60 panel” value (NCI-60 cell line panel) did it give?
A: Its value is over 90%.

Q: And the “IAV/MDCK SI” value [1]?
A: Its value is 0.35.

Q: What about the inhibition at 10 µM [2] of the same molecule?
A: Its inhibition at 10 µM is 77.2%.

Q: What about the inhibition at 10 µM [3] of the same molecule?
A: Its inhibition at 10 µM is 78.2%.

Q: What about the “growth inhibition (GI%) and cytotoxicity (negative values)” value (from here on “growth inhibition (GI%) and cytotoxicity”) ([4]; human) of the same molecule?
A: The value was −84.03%.

Q: What about the inhibition at 10 µM [5] of the same molecule?
A: Its inhibition at 10 µM is 83.1%.

Q: And the inhibition at 10 µM [6]?
A: The inhibition at 10 µM was 68.4%.

Q: What about the inhibition at 10 µM [7] of the same molecule?
A: The inhibition at 10 µM was under 60%.

Q: What about the inhibition at 10 µM [8] of the same molecule?
A: The inhibition at 10 µM was 95.5%.

Q: And the inhibition at 10 µM [9]?
A: Its inhibition at 10 µM is under 60%.

Q: And the inhibition at 10 µM [10]?
A: The inhibition at 10 µM was 62.6%.

Q: What about the inhibition at 10 µM [11] of the same molecule?
A: Its inhibition at 10 µM is 70.3%.

Q: And the “growth inhibition (GI%) and cytotoxicity” value ([12]; human)?
A: The value was −21.33%.

Q: And the inhibition at 10 µM [13]?
A: The inhibition at 10 µM was 60.2%.

Q: What about the “growth inhibition (GI%) and cytotoxicity” value ([14]; human) of the same molecule?
A: Its value is −88.58%.

Q: And the “growth inhibition (GI%) and cytotoxicity” value (M14 (melanoma cell line))?
A: The value was −69.37%.

Q: And the “growth inhibition (GI%) and cytotoxicity” value ([15]; human)?
A: The value was −1.74%.

Q: What about the “growth inhibition (GI%) and cytotoxicity” value ([16]; human) of the same molecule?
A: Its value is −58.02%.

Q: What about the inhibition at 10 µM [17] of the same molecule?
A: Its inhibition at 10 µM is 65.9%.

Q: What about the inhibition at 10 µM [18] of the same molecule?
A: Its inhibition at 10 µM is 92.2%.

Q: What about the “growth inhibition (GI%) and cytotoxicity” value [19] of the same molecule?
A: The value was −23.10%.

Q: And the inhibition at 10 µM [20]?
A: Its inhibition at 10 µM is 84.7%.

Q: What about the “growth inhibition (GI%) and cytotoxicity” value ([21]; human) of the same molecule?
A: Its value is −52.93%.

Q: And the inhibition at 10 µM [22]?
A: Its inhibition at 10 µM is 94.7%.

Q: What about the inhibition at 10 µM [23] of the same molecule?
A: Its inhibition at 10 µM is under 60%.

Q: What about the “growth inhibition (GI%) and cytotoxicity” value ([24]; human) of the same molecule?
A: The value was −69.19%.

Q: And the inhibition at 10 µM [25]?
A: The inhibition at 10 µM was 99%.

Q: And the “growth inhibition (GI%) and cytotoxicity” value ([26]; human)?
A: The value was −40.23%.

Q: And the inhibition at 10 µM [27]?
A: The inhibition at 10 µM was under 60%.

Q: What about the inhibition at 10 µM (SR (leukemia cell line); Homo sapiens, read-out: growth inhibition (GI%) and cytotoxicity (negative values)) of the same molecule?
A: The inhibition at 10 µM was 99.4%.

Q: And the “growth inhibition (GI%) and cytotoxicity” value [28]?
A: Its value is −29.55%.

Q: And the inhibition at 10 µM [29]?
A: The inhibition at 10 µM was 87%.

Q: And the “growth inhibition (GI%) and cytotoxicity” value ([30]; human)?
A: Its value is −59.22%.

Q: What about the inhibition at 10 µM [31] of the same molecule?
A: The inhibition at 10 µM was 78.5%.

Q: And the “growth inhibition (GI%) and cytotoxicity” value [32]?
A: The value was −59.92%.

Q: And the inhibition at 10 µM [33]?
A: The inhibition at 10 µM was 95.5%.

Q: What about the “growth inhibition (GI%) and cytotoxicity” value [34] of the same molecule?
A: The value was −91.84%.
